Results published in patent US12686687B2, “Compounds and uses thereof” (Foghorn Therapeutics Inc., priority 2019, dated 2026).
Entries after “also recorded” stand apart in the source; their conditions may differ.

Columns and labels:
[1] = tested on: synovial sarcoma cell lines (SYO1, Yamato, HS-SY-II, and ASKA); assay: Growth of synovial sarcoma cell lines (IncuCyte confluency, crystal violet staining, colony imaging); type: cell-based, human; details: 1 μM or indicated concentrations (FIGS. 5-7)
Description: (§1) Cells were treated with DMSO or the BRD9 degrader, Compound 1, at indicated concentrations, and proliferation was monitored from day 7 to day 14 by measuring confluency over time using an IncuCyte live cell analysis system (FIG. 5). Growth medium and compounds were refreshed every 3-4 days.
(§2) Cells were seeded into 12-well plates and treated with DMSO, 1 μM BRD9 inhibitor, Compound 2 (also known as BI-7273, see Martin et al, J Med Chem. 59(10):4462-4475 (2016); see structure of compound 2 below), or 1 μM BRD9 degrader, Compound 1.
(§3) The number of cells was optimized for each cell line. Growth medium and compounds were refreshed every 3-5 days. SYO1, Yamato, A549, 293T and HS-SY-II cells were fixed and stained at day 11. ASKA cells were fixed and stained at day 23. Staining was done by incubation with crystal violet solution (0.5 g Crystal Violet, 27 ml 37% Formaldehyde, 100 mL 10×PBS, 10 mL Methanol, 863 dH2O to 1 L) for 30 minutes followed by 3× washes with water and drying the plates for at least 24h at room temperature. Subsequently plates were scanned on an Odyssey CLx Imaging system (FIG. 6).
(§4) Cells were seeded into 96-well ultra low cluster plate (Costar, #7007) in 200 μL complete media and treated at day 2 with DMSO, Staurosporin, or BRD9 degrader, Compound 1, at indicated doses (FIG. 7).

[2] = tested on: non-synovial control cancer cell lines (293T, A549, G401); assay: Growth of non-synovial control cancer cell lines (crystal violet staining, colony imaging); type: cell-based, human; details: 1 μM or indicated doses (FIGS. 5-7)
Description: as §1, §2, §3, §4

[3] = tested on: synovial sarcoma cell lines (SYO1, HS-SY-II, and ASKA); assay: Growth of synovial sarcoma cell lines, daily treatment, crystal violet at day 14; type: cell-based, human; details: treated daily, day 14 (FIG. 8)
Description: (§5) Procedure: Cells were seeded into 6-well or 12-well plates and were treated daily with a BRD9 degrader (Compound 1), a bromo-domain BRD9 binder (Compound 2), E3 ligase binder (lenalidomide), DMSO, or staurosporin (positive control for cell killing), at indicated concentrations. The number of cells was optimized for each cell line. Growth media was refreshed every 5 days. By day 14, medium was removed, cells were washed with PBS, and stained using 500 μL of 0.005% (w/v) crystal violet solution in 25% (v/v) methanol for at least 1 hour at room temperature.

[4] = tested on: non-synovial control cancer cell lines (RD, HCT116, and Calu6); assay: Growth of non-synovial control cancer cell lines, daily treatment, crystal violet at day 14; type: cell-based, human; details: treated daily, day 14 (FIG. 9)
Description: as §5

[5] = target: T1, BRD9 bromodomain (Flag-BRD9 P133-K239; Swiss Prot Q9H8M2) (Homo sapiens, UniProt Q9H8M2); assay: BRD9 bromodomain TR-FRET competition binding assay; details: 3 nM Flag-BRD9, 3.75 nM biotinylated ligand, 90 minutes at room temperature
T1 construct: His-Flag-BRD9 (P133-K239); Swiss Prot Q9H8M2; His6 with TEV site (mgsshhhhhhenlyfq/) (N, cleaved yes); made in house
T1 sequence (Q9H8M2 133-239): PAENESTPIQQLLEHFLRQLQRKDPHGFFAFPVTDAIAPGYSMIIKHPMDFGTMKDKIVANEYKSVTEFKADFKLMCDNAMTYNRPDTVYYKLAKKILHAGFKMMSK
Description: Cleaved His tag was removed by purification. […] DMSO or 3-fold serially diluted compounds were then added to the Proxiplate followed by addition of Flag-BRD9. After a 10-minute incubation at room temperature, Eu-W1024 anti-FLAG (PerkinElmer, AD0273) was added.

[6] = target: T2, Nanoluciferase-BRD9 fusion protein (3×FLAG-NLuc-BRD9) in SYO-1 cells (Homo sapiens, UniProt Q9H8M2); assay: SYO1 BRD9 NanoLuc degradation assay; type: cell-based; details: 6 hours treatment, 1 μM top dose; read-out: SYO1 BRD9-NanoLuc degradation IC50
T2 construct: expressed in transfected cells; host or cells: SYO-1
T2 sequence (Q9H8M2 1-597): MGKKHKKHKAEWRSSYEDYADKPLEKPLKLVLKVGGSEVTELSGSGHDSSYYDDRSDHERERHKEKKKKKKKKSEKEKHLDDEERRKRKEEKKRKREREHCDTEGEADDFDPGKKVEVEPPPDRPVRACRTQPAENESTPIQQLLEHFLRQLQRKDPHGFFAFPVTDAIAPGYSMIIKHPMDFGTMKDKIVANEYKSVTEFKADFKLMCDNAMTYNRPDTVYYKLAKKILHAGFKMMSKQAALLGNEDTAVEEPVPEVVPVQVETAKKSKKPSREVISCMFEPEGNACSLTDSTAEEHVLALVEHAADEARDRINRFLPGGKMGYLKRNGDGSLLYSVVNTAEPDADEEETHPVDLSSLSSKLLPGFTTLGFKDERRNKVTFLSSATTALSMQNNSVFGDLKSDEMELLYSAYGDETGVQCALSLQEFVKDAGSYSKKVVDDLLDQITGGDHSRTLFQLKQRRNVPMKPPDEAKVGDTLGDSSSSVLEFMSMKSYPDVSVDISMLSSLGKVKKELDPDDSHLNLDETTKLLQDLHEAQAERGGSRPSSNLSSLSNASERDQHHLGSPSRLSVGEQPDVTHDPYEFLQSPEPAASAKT
Method in brief: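 Stable SYO-1 line expressing 3×FLAG-NLuc-BRD9 was seeded at 8000 cells/well, then treated next day for 6 h with 10-point 3-fold dilutions (top 1 μM final). Nano-Glo luminescence was read. % inhibition was normalised to DMSO (high control) and 1 μM reference BRD9 degrader (low control).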

SYO1 cells [7] = assay: Cell cycle analysis (Click-iT Plus EdU flow cytometry) in SYO1 cells; type: cell-based, human; details: SYO1, 200 nM or 1 μM, 8 or 13 days, compared to DMSO and lenalidomide
Description: (§6) Procedure: SYO1 cells were treated for 8 or 13 days with DMSO, a BRD9 degrader (Compound 1) at 200 nM or 1 μM, or an E3 ligase binder (lenalidomide) at 200 nM. Compounds were refreshed every 5 days. Cell cycle analysis was performed using the Click-iT™ Plus EdU Flow Cytometry Assay (Invitrogen). The apoptosis assay was performed using the Annexin V-FITC Apoptosis Detection Kit (Sigma A9210).

SYO1 cells [8] = assay: Apoptosis assay (Annexin V-FITC) in SYO1 cells; type: cell-based, human; details: SYO1, 200 nM or 1 μM, 8 days, compared to DMSO controls
Description: as §6

SMILES	IC50 [5]	DC50 [6]	also measured
COc1cc(-c2cn(C)c(=O)c3cnccc23)cc(OC)c1CN(C)C [Compound 2]			inhibition of cell growth [1]: inhibition of the growth of the cells; inhibition of cell growth [2]: does not result in inhibition of the growth; inhibition of cell growth [3]: inhibition of the growth of the cells; inhibition of cell growth [4]: did not result in inhibition of the growth
COc1cc(-c2cn(C)c(=O)c3cc(NC(=O)C4CCN(CCCCCOc5cccc6c5C(=O)N(C5CCC(=O)NC5=O)C6=O)CC4)sc23)cc(OC)c1CN(C)C (centres unmarked) [Compound D6, N-(7-[4-[(dimethylamino)methyl]-3,5-dimethoxyphenyl]-5-methyl-4-oxothieno[3,2-c]pyridin-2-yl)-1-(5-[[2-(2,6-dioxopiperidin-3-yl)-1,3-dioxoisoindol-4-yl]oxy]pentyl)piperidine-4-carboxamide]	< 0.01 µM	> 1 µM	
COc1cc(-c2cn(C)c(=O)c3cc(NC(=O)C4CCN(C(=O)CCOCCOCCNc5cccc6c5C(=O)N(C5CCC(=O)NC5=O)C6=O)CC4)sc23)cc(OC)c1CN(C)C (centres unmarked) [Compound D4, N-(7-[4-[(dimethylamino)methyl]-3,5-dimethoxyphenyl]-5-methyl-4-oxothieno[3,2-c]pyridin-2-yl)-1-[3-[2-(2-[[2-(2,6-dioxopiperidin-3-yl)-1,3-dioxoisoindol-4-yl]amino]ethoxy)ethoxy]propanoyl]piperidine-4-carboxamide]	> 0.01 µM	> 0.01 µM	
COc1cc(-c2cn(C)c(=O)c3cc(NC(=O)C4CCN(C)CC4)sc23)cc(OC)c1CN(C)CC(=O)NCCOCCOc1cccc2c1C(=O)N(C1CCC(=O)NC1=O)C2=O (centres unmarked) [Compound D1, N-[7-(4-[[([[2-(2-[[2-(2,6-dioxopiperidin-3-yl)-1,3-dioxoisoindol-4-yl]oxy]ethoxy)ethyl]carbamoyl]methyl)(methyl)amino]methyl]-3,5-dimethoxyphenyl)-5-methyl-4-oxothieno[3,2-c]pyridin-2-yl]-1-methylpiperidine-4-carboxamide]	> 0.1 µM	> 1 µM	
Cn1cc(-c2ccc(OCC(=O)NCCCCCCCCNc3cccc4c3C(=O)N(C3CCC(=O)NC3=O)C4=O)c(C(F)(F)F)c2)c2sc(C(=N)NC3CCS(=O)(=O)CC3)cc2c1=O (centres unmarked) [Compound D3, 2-(4-[2-[N-(1,1-dioxo-1λ6-thian-4-yl)carbamimidoyl]-5-methyl-4-oxo-4H,5H-thieno[3,2-c]pyridin-7-yl]-2-(trifluoromethyl)phenoxy)-N-(8-[[2-(2,6-dioxopiperidin-3-yl)-1,3-dioxo-2,3-dihydro-1H-isoindol-4-yl]amino]octyl)acetamide]	> 0.01 µM	< 0.01 µM	
COc1cc(-c2cn(C)c(=O)c3cc(NC(=O)C4CCN(C(=O)CCCCOc5cccc6c5C(=O)N(C5CCC(=O)NC5=O)C6=O)CC4)sc23)cc(OC)c1CN(C)C (centres unmarked) [Compound D12, N-(7-[4-[(dimethylamino)methyl]-3,5-dimethoxyphenyl]-5-methyl-4-oxothieno[3,2-c]pyridin-2-yl)-1-(5-[[2-(2,6-dioxopiperidin-3-yl)-1,3-dioxoisoindol-4-yl]oxy]pentanoyl)piperidine-4 carboxamide]	< 0.01 µM	< 0.01 µM	
COc1cc(-c2cn(C)c(=O)c3cnccc23)cc(OC)c1CN(C)CC(=O)NCCOCCOCCNc1cccc2c1C(=O)N(C1CCC(=O)NC1=O)C2=O (centres unmarked) [Compound 1]			inhibition of cell growth [1]: inhibition of the growth of the cells; inhibition of cell growth [2]: does not result in inhibition of the growth; inhibition of cell growth [3]: inhibition of the growth of the cells; also recorded: most significant growth inhibition; inhibition of cell growth [4]: did not result in inhibition of the growth; cells in the S-phase of the cell cycle (SYO1 cells [7]): reduced numbers of cells in the S-phase; early- and late-apoptotic cells (SYO1 cells [8]): increased numbers of early- and late-apoptotic cells
COc1cc(-c2cn(C)c(=O)c3cc(C(=O)NC4CCN(CCCCCOc5cccc6c5C(=O)N(C5CCC(=O)NC5=O)C6=O)CC4)sc23)cc(OC)c1CN(C)C (centres unmarked) [Compound D11, 7-(4-((dimethylamino)methyl)-3,5-dimethoxyphenyl)-N-(1-(5-((2-(2,6-dioxopiperidin-3-yl)-1,3-dioxoisoindolin-4-yl)oxy)pentyl)piperidin-4-yl)-5-methyl-4-oxo-4,5-dihydrothieno[3,2-c]pyridine-2-carboxamide]	< 0.01 µM	> 1 µM	
COc1cc(-c2cn(C)c(=O)c3cc(C(=O)NC4CCN(C(=O)CCCCOc5cccc6c5C(=O)N(C5CCC(=O)NC5=O)C6=O)CC4)sc23)cc(OC)c1CN(C)C (centres unmarked) [Compound D10, 7-(4-((dimethylamino)methyl)-3,5-dimethoxyphenyl)-N-(1-(5-((2-(2,6-dioxopiperidin-3-yl)-1,3-dioxoisoindolin-4-yl)oxy)pentanoyl)piperidin-4-yl)-5-methyl-4-oxo-4,5-dihydrothieno[3,2-c]pyridine-2-carboxamide]	< 0.01 µM	< 0.01 µM	
COc1cc(-c2cn(C)c(=O)c3cc(C(=O)NC4CCN(CCCCCOc5ccc6c(c5)C(=O)N(C5CCC(=O)NC5=O)C6=O)CC4(F)F)sc23)cc(OC)c1CN(C)C (centres unmarked) [Compound D15, 7-[4-[(dimethylamino)methyl]-3,5-dimethoxyphenyl]-N-[1-(5-[[2-(2,6-dioxopiperidin-3-yl)-1,3-dioxoisoindol-5-yl]oxy]pentyl)-3,3-difluoropiperidin-4-yl]-5-methyl-4-oxothieno[3,2-c]pyridine-2-carboxamide]	< 0.01 µM	< 0.01 µM	
